Results as given in US6787525B1, “Glyceryl nucleotides, method for the production thereof and their use” (priority 1998, dated 2004).

How the values were obtained:
SR = test: In vitro cytostatic effect (SRB): SR, Leukemia
M14 = test: In vitro cytostatic effect (SRB): M14, Melanoma
K-562 = test: In vitro cytostatic effect (SRB): K-562, Leukemia
MOLT-4 = test: In vitro cytostatic effect (SRB): MOLT-4, Leukemia
EKVX = test: In vitro cytostatic effect (SRB): EKVX, Lung cancer; conditions: 48-hour incubation
UACC-62 = test: In vitro cytostatic effect (SRB): UACC-62, Melanoma
LOX IMVI = test: In vitro cytostatic effect (SRB): LOX IMVI, Melanoma
MALME-3M = test: In vitro cytostatic effect (SRB): MALME-3M, Melanoma
HOP-62 = test: In vitro cytostatic effect (SRB): HOP-62, Lung cancer
SK-MEL-28 = test: In vitro cytostatic effect (SRB): SK-MEL-28, Melanoma
ACHN = test: In vitro cytostatic effect (SRB): ACHN, Kidney cancer
768-0 = test: In vitro cytostatic effect (SRB): 768-0, Kidney cancer
NCI-H460 = test: In vitro cytostatic effect (SRB): NCI-H460, Lung cancer
NCI-H522 = test: In vitro cytostatic effect (SRB): NCI-H522, Lung cancer
BT-549 = test: In vitro cytostatic effect (SRB): BT-549, Breast cancer
A549/ATCC = test: In vitro cytostatic effect (SRB): A549/ATCC, Lung cancer
RXF 393 = test: In vitro cytostatic effect (SRB): RXF 393, Kidney cancer
HT29 = test: In vitro cytostatic effect (SRB): HT29, Intestinal cancer
OVCAR-3 = test: In vitro cytostatic effect (SRB): OVCAR-3, Ovarian cancer
OVCAR-4 = test: In vitro cytostatic effect (SRB): OVCAR-4, Ovarian cancer
OVCAR-5 = test: In vitro cytostatic effect (SRB): OVCAR-5, Ovarian cancer
COLO205 = test: In vitro cytostatic effect (SRB): COLO205, Intestinal cancer
NCI/ADR-RES = test: In vitro cytostatic effect (SRB): NCI/ADR-RES, Breast cancer
U251 = test: In vitro cytostatic effect (SRB): U251, Cancer of the central nervous system
SF-268 = test: In vitro cytostatic effect (SRB): SF-268, Cancer of the central nervous system
SF-295 = test: In vitro cytostatic effect (SRB): SF-295, Cancer of the central nervous system
SF-539 = test: In vitro cytostatic effect (SRB): SF-539, Cancer of the central nervous system
SNB-75 = test: In vitro cytostatic effect (SRB): SNB-75, Cancer of the central nervous system
[1] = read-out: LC50, 48-hour incubation

Nc1ccn(C2CCC(COP(=O)(O)OCC(O)COP(=O)(O)OCC3OC(n4cc(F)c(=O)[nH]c4=O)CC3O)O2)c(=O)n1 (racemic) [NSC 704533, 2′,3′-didesoxycytidylyl-(5′→1)-racglycerylyl-(3→5′)-5-fluoro-2′-desoxyuridine] was tested, and the GI50 (SR; 48-hour incubation) was < 0.01 µM, the TGI (SR; 48-hour incubation) was >1.00E − 04 mol/l and the CC50 (SR; [1]) was > 100 µM. For the same compound, the GI50 (M14; 48-hour incubation) was 0.203 µM, the TGI (M14; 48-hour incubation) was >1.00E − 04 mol/l and the CC50 (M14; [1]) was > 100 µM. For the same compound, the GI50 (K-562; 48-hour incubation) was 2.57 µM, the TGI (K-562; 48-hour incubation) was >1.00E − 04 mol/l and the CC50 (K-562; [1]) was > 100 µM. The GI50 (MOLT-4; 48-hour incubation) was 0.104 µM, the TGI (MOLT-4; 48-hour incubation) was >1.00E − 04 mol/l and the CC50 (MOLT-4; [1]) was > 100 µM. For the same compound, the GI50 (EKVX) was > 100 µM, the TGI (EKVX) was >1.00E − 04 mol/l and the GI50 (UACC-62; 48-hour incubation) was 0.55 µM. For the same compound, the TGI (UACC-62; 48-hour incubation) was >1.00E − 04 mol/l, the CC50 (UACC-62; [1]) was > 100 µM and the GI50 (LOX IMVI; 48-hour incubation) was 0.0101 µM. The TGI (LOX IMVI; 48-hour incubation) was >1.00E − 04 mol/l, the CC50 (LOX IMVI; [1]) was > 100 µM and the GI50 (MALME-3M; 48-hour incubation) was > 100 µM. The TGI (MALME-3M; 48-hour incubation) was >1.00E − 04 mol/l, the CC50 (MALME-3M; [1]) was > 100 µM and the GI50 (HOP-62; 48-hour incubation) was 0.902 µM. The TGI (HOP-62; 48-hour incubation) was >1.00E − 04 mol/l, the CC50 (HOP-62; [1]) was > 100 µM and the GI50 (SK-MEL-28; 48-hour incubation) was 37.9 µM. The TGI (SK-MEL-28; 48-hour incubation) was >1.00E − 04 mol/l, the CC50 (SK-MEL-28; [1]) was > 100 µM and the GI50 (ACHN; 48-hour incubation) was < 0.01 µM. The TGI (ACHN; 48-hour incubation) was >1.00E − 04 mol/l, the CC50 (ACHN; [1]) was > 100 µM and the GI50 (768-0; 48-hour incubation) was > 100 µM. For the same compound, the TGI (768-0; 48-hour incubation) was >1.00E − 04 mol/l, the CC50 (768-0; [1]) was > 100 µM and the GI50 (NCI-H460; 48-hour incubation) was < 0.01 µM. The TGI (NCI-H460; 48-hour incubation) was >1.00E − 04 mol/l, the CC50 (NCI-H460; [1]) was > 100 µM and the GI50 (NCI-H522; 48-hour incubation) was 0.746 µM. For the same compound, the TGI (NCI-H522; 48-hour incubation) was >1.00E − 04 mol/l, the CC50 (NCI-H522; [1]) was > 100 µM and the GI50 (BT-549; 48-hour incubation) was 4.15 µM. For the same compound, the TGI (BT-549; 48-hour incubation) was >1.00E − 04 mol/l, the CC50 (BT-549; [1]) was > 100 µM and the GI50 (A549/ATCC; 48-hour incubation) was 0.0477 µM. The TGI (A549/ATCC; 48-hour incubation) was >1.00E − 04 mol/l, the CC50 (A549/ATCC; [1]) was > 100 µM and the GI50 (RXF 393; 48-hour incubation) was 5.12 µM. For the same compound, the TGI (RXF 393; 48-hour incubation) was >1.00E − 04 mol/l, the CC50 (RXF 393; [1]) was > 100 µM and the GI50 (HT29; 48-hour incubation) was 1.88 µM. For the same compound, the TGI (HT29; 48-hour incubation) was >1.00E − 04 mol/l, the CC50 (HT29; [1]) was > 100 µM and the GI50 (OVCAR-3; 48-hour incubation) was 65.4 µM. The TGI (OVCAR-3; 48-hour incubation) was >1.00E − 04 mol/l, the CC50 (OVCAR-3; [1]) was > 100 µM and the GI50 (OVCAR-4; 48-hour incubation) was > 100 µM. For the same compound, the TGI (OVCAR-4; 48-hour incubation) was >1.00E − 04 mol/l, the CC50 (OVCAR-4; [1]) was > 100 µM and the GI50 (OVCAR-5; 48-hour incubation) was 12.6 µM. For the same compound, the TGI (OVCAR-5; 48-hour incubation) was >1.00E − 04 mol/l, the CC50 (OVCAR-5; [1]) was > 100 µM and the GI50 (COLO205; 48-hour incubation) was 17.7 µM. The TGI (COLO205; 48-hour incubation) was >1.00E − 04 mol/l, the CC50 (COLO205; [1]) was > 100 µM and the GI50 (NCI/ADR-RES; 48-hour incubation) was 0.695 µM. The TGI (NCI/ADR-RES; 48-hour incubation) was >1.00E − 04 mol/l, the CC50 (NCI/ADR-RES; [1]) was > 100 µM and the GI50 (U251; 48-hour incubation) was 1.26 µM. For the same compound, the TGI (U251; 48-hour incubation) was >1.00E − 04 mol/l, the CC50 (U251; [1]) was > 100 µM and the GI50 (SF-268; 48-hour incubation) was < 0.01 µM. For the same compound, the TGI (SF-268; 48-hour incubation) was >1.00E − 04 mol/l, the CC50 (SF-268; [1]) was > 100 µM and the GI50 (SF-295; 48-hour incubation) was 0.0345 µM. The TGI (SF-295; 48-hour incubation) was >1.00E − 04 mol/l, the CC50 (SF-295; [1]) was > 100 µM and the GI50 (SF-539; 48-hour incubation) was 0.0216 µM. The TGI (SF-539; 48-hour incubation) was >1.00E − 04 mol/l, the CC50 (SF-539; [1]) was > 100 µM and the GI50 (SNB-75; 48-hour incubation) was 1.59 µM. For the same compound, the TGI (SNB-75; 48-hour incubation) was >1.00E − 04 mol/l and the CC50 (SNB-75; [1]) was > 100 µM.
